From US8674096B2, “Substituted imidazo[1,5-a]quinoxalin-4-ones as phosphodiesterase 9 inhibitors” (priority 2009, dated 2014)

How the values were obtained:
[1] = target: T1, PDE9 (Homo sapiens, UniProt O76083); test: PDE9-inhibiting activity (SPA, 3H-cGMP degradation); assay type: biochemical
T1 construct: made in house
Procedure: The PDE9 used in the present experiment was expressed/purified by the method as in, for example, Guipponi et al., and Fisher et., al. (Fisher, D. A., et al., J. Biol. Chem., 273: pp. 15559-15564 (1998), Guipponi, M., et al., Hum. Genet., 103: pp. 386-392 (1998)).
The PDE9-inhibiting activity was measured by the following method. That is, to a buffer solution containing tris(hydroxymethyl)aminomethane-hydrochloric acid (40 mM, pH 8.0), magnesium chloride (5 mM), and 2-mercaptoethanol (4 mM) were added cGMP (1 μM) and ^3H-cGMP (0.33 μCi/ml) to give a substrate buffer solution. A test substance solution and an enzyme solution which had been adjusted to an optimal concentration were added thereto to perform a reaction at 30° C. The enzyme reaction was stopped by the addition of Scintillation Proximity Assay (SPA) Beads (GE Healthcare, UK) containing 5 mM 3-isobutyl-1-methylxanthine (IBMX). For the enzyme activity, the amount of 5′-GMP, which is a reaction degradation product bound to SPA beads, was measured with a TopCount microplate reader (Hewlett Packard, USA).
The inhibitory rate was calculated by taking the radioactivity of the control containing no test substance as (A), taking the radioactivity of the blank containing no enzyme as (B), and taking the radioactivity of the test substance as (C), and using the following equation. Inhibitory rate=100−{(C)−(B)/(A)−(B)}×100(%)

T1 sequence (O76083 whole entry): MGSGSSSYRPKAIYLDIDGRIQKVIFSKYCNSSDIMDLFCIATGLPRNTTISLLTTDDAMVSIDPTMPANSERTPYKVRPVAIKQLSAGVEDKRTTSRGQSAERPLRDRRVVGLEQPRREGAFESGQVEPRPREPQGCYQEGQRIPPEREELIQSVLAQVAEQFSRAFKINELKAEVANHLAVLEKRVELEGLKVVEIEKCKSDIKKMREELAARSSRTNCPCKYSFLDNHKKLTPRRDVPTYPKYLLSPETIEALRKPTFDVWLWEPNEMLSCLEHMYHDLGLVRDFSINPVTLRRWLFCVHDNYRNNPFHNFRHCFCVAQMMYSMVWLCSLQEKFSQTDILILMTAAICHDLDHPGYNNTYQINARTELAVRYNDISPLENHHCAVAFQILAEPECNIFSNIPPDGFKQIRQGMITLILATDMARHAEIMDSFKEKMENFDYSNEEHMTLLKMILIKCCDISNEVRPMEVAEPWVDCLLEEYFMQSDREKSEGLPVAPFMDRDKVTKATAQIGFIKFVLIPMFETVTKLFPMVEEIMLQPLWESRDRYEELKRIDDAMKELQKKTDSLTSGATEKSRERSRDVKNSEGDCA

| SMILES | IC50 [1] [nM] | melting point |
| --- | --- | --- |
| COCc1cc2c(cc1C(=O)N1CCc3cc(Cl)ccc31)[nH]c(=O)c1cnc(C3CCOCC3)n12.Cl [Example 300] | 0.8 | 298 to 301 °C (dec.) |
| Cc1cc2c(cc1C(=O)N1CCc3cc(F)ccc31)[nH]c(=O)c1cnc(C3CCOCC3)n12.Cl [Example 76] | 2.5 | 297 to 298 °C |
| Cc1cc2c(cc1C(=O)N1CCc3cc(F)cnc31)[nH]c(=O)c1cnc(C3CCOCC3)n12.Cl [Example 344] | 7.7 | 340 °C (dec.) |
| Cc1cc2c(cc1C(=O)N1CCc3cc(Cl)ccc31)[nH]c(=O)c1nnc(C(O)C3CC3)n12 (stereo not drawn) [Example 359] | 5.4 | 260 to 262 °C (dec.) |
| COCc1cc2c(cc1C(=O)N1CCc3cc(Br)cnc31)[nH]c(=O)c1cnc(C3CCOCC3)n12.Cl [Example 320] | 1 | 310 °C (dec.) |
| Cc1cc2c(cc1C(=O)N1CCc3cc(Cl)c(F)cc31)[nH]c(=O)c1cnc(C3CCOCC3)n12.Cl [Example 290] | 1 | 292 to 294 °C |
| Cl.O=C(c1cc2[nH]c(=O)c3cnc(C4CCOCC4)n3c2cc1OCCO)N1CCc2cc(Cl)ccc21 [Example 326] | 1.2 | 303 to 306 °C (dec.) |
| Cc1cc2c(cc1C(=O)N1CCc3cc(Cl)ccc31)[nH]c(=O)c1nnc([C@H]3CC[C@@H](O)CC3)n12 [Example 356] | 1.5 | 277 to 279 °C |
| COc1cc2c(cc1C(=O)N1Cc3ccccc3C[C@@H]1CO)[nH]c(=O)c1cnc(C3CCCCC3)n12 [Example 220] | 18 | 215 °C (dec.) |
| COc1cc2c(cn1)N(C(=O)c1cc3[nH]c(=O)c4cnc(C5CCOCC5)n4c3cc1OC)CC2 [Example 277] | 16 | 237 °C (dec.) |
| Cc1cc2c(cc1C(=O)N1CCc3cc(F)ccc31)[nH]c(=O)c1nnc(C3(C)CCOCC3)n12.Cl [Example 322] | 29 | 243 to 245 °C |
| Cc1cc2c(cc1C(=O)N1CCc3cc(Br)cnc31)[nH]c(=O)c1nnc(C3CCOC3)n12.Cl (stereo not drawn) [Example 312] | 20 | 242 to 243 °C |
